Measurements from patent US9408388B2 (Dow Global Technologies LLC, priority 2013, dated 2016).

Legend:
[1] = system: Chlorella sp. ATCC 7516; assay: Algal efficacy testing of dry paint film (modified ASTM 5589, 6-well plates); type: cell-based; conditions: 4 weeks
Procedure: (§1) Slurries containing 34.3% carbendazim were post added to a white, acrylic/silicone based outdoor paint free of biocides to give a total active ingredient concentration of 10000 and 1000 ppm respectively. These paints were then diluted with an antimicrobial free acrylic/silicone based paint and mixed to prepare targeted concentrations of antimicrobial compounds for the testing. The total biocides concentrations tested were 125, 250, 500, 1000, 2000 and 5000 ppm. After biocides addition or dilution, the paints were mixed 90 seconds with the horse power shaker (AXEL 75M3372/Agitateur SO-10MI) until uniformity was achieved. Paints containing different antimicrobial compounds at the same levels were mixed together in order to obtain the desired ratio of antimicrobial compounds. After one day, the paints were applied to Schleicher & Schuell filter paper at 280 μm wet film thickness and dried for 3 days at room temperature avoiding direct exposure to sunlight. Square discs (1.6 cm×1.6 cm) were cut out from each panel and were used as the substrate for algal efficacy tests. This sample size allowed for an agar border when the sample disc was placed into the well of the test plate.
(§2) Algal efficacy was tested according to modified ASTM 5589 which is a standard accelerated test method for determining resistance of various coatings (including paints) to algal defacement. To accommodate for high-throughput screening, this method was scaled down from petri dishes to 6-well plates. Bold Modified Basal Freshwater Nutrient Solution was used as growth medium. A single coated filter paper coupon was placed with a pair of sterile forceps at the center of the agar plug (on top) with the painted surface facing upwards. Algal inoculums were prepared by mixing equal concentrations (1×10^6 cfu/ml) and equal volumes of exponentially growing algae cultures.
(§3) Each well that contains a tested coupon was inoculated with 1750 μl of algal suspensions (1×10^6 cfu/ml) making sure that the whole surface (paint film as well as the agar surrounding it) was evenly covered. The plates were incubated at room temp (21° C. -25° C.) with cyclic exposure to light and dark phases, for a period of four weeks.
(§4) At the end of the four week incubation period, the samples were scored for percent inhibition regarding visible algal growth compared to the blank sample (0% inhibition).
(§5) The SI is calculated based on F. C. Kull et.
(§6) The minimal targeted inhibition was set at 75%, meaning a coupon with at least 75% algal growth inhibition was considered as a pass.

[2] = system: Stichococcus bacillaris SAG 379-1a CCAP 379/1a; assay: as above; type: cell-based; conditions: 4 weeks
Procedure: as §1, §2, §3, §4, §5, §6

[3] = pass level 75% inhibition, total biocide in liquid paint

Row | Compound | inhibition at 5000 ppm ([1]; 672 h, total conc 5000 ppm, visible algal growth vs blank) [%] | inhibition at 5000 ppm ([2]; Stichococcus bacillaris, 672 h, total conc 5000 ppm, visible algal growth vs blank) [%] | Total conc (concentration used for SI; lowest passing level or highest level without pass) [1, 3] [ppm] | inhibition at 2000 ppm ([1]; 672 h, total conc 2000 ppm, visible algal growth vs blank) [%] | Total conc (concentration used for SI; lowest passing level or highest level without pass) [2, 3] [ppm] | inhibition at 2000 ppm ([2]; Stichococcus bacillaris, 672 h, total conc 2000 ppm, visible algal growth vs blank) [%]
1 | O=c1[nH]c2c(c(=O)n1C1CCCCC1)CCC2 [Lenacil, 3-cyclohexyl-1,5,6,7-tetrahydrocyclopentapyrimidine-2,4(3H)-dione] | 45 | 65 |  |  |  | 
2 | COC(=O)Nc1nc2ccccc2[nH]1 [Carbendazim, methylbenzimidazol-2-ylcarbamate] |  |  | 2000 | 45 | 2000 | 45
